Results on four molecules are retold here after patent US7863416B2, “Nociceptin-based analgesics” (Synvax, Inc., priority 2001, dated 2011).

The target of assay [1] is T1, human ORL1 (Homo sapiens, UniProt P41146).
T1 construct: expressed in transfected cells; host or cells: CHO cells (G418-selected)
In words: Stimulation of [35S]GTPγS binding in membranes of CHO cells transfected with human ORL-1. Format: biochemical. As to conditions: for agonist/antagonist character at ORL1: in words; for Emax: read-out: % Stimulation ± SEM of [35S]GTPγS binding. As for the experimental part:
First, CHO cells transfected with human ORL-1 are scraped from tissue culture dishes into 20 mM HEPES, 1 mM EDTA, and then centrifuged at 500×g for 10 minutes. The cells are then re-suspended in this buffer and homogenized using a Polytron Homogenizer.
The cellular homogenate is next centrifuged at 20,000×g for 20 minutes. Following this, the resulting pellet is re-suspended in a buffer containing 20 mM HEPES, 10 mM MgCl2, and 100 mM NaCl, having a resulting pH of 7.4. The suspension is then re-centrifuged at 20,000×g and suspended once more in the above-listed buffer. The pellet may be frozen at −70° C. prior to the final centrifugation. For the binding assay, membranes (10-20 μg protein) are incubated with [^35S]GTPγγS (50 pM), GDP (usually 10 μM), and the desired compound. The total volume of the mixture is 1 ml, which is incubated for 60 min at 25° C.
Following incubation, samples are filtered over glass fiber filters and counted. […]
In these [^35S]GTPγS assays, binding was conducted as described above. EC50 values and percent stimulation were determined using the program Prism.
In general terms: Binding of GTPγS marks nucleotide exchange on a G protein.

Assay [2] addresses T1, human ORL1. Description: [3H]nociceptin binding to membranes of CHO cells transfected with human ORL1. Particulars: for Hill Coefficient: Table 5.
Assay [3] in a line: In vivo test for analgesic activity and potentiation of morphine analgesia.
Assay [4] addresses T1, human ORL1. In words: Antagonism of nociceptin-stimulated [35S]GTPγS binding (inhibition, Schild analysis). Format: biochemical.
For assay [5], the system named is mice. Description: Tail flick assay, peptide combined with morphine and/or N/OFQ (morphine-induced analgesia). Format: in vivo. The protocol: The modified Boniferroni Test was used for these planned comparisons (p value was set at P<0.036). Doses were determined based on the potency of the compounds tested.
The antagonist was next assayed for the ability to reverse the inhibition of morphine-induced analgesia. In this assay, the control received morphine alone, while test animals received morphine +3 nmol of the antagonist, morphine +10 nmol of the antagonist. […] For each of these animals, response was measured at 5, 10, and 20 minutes after intracerebroventricular injection.
The agonist VII-87-B was further investigated by evaluating its ability to reverse morphine-induced analgesia. In this assay, the control animal received 10 nmols of morphine alone, while test animals received morphine +0.1 nmol of the agonist, morphine +1.0 nmol of the agonist, or morphine +10.0 nmol of the agonist. For each of these animals, response was measured at 5, 10, and 20 minutes after intracerebroventricular injection.
The agonist VII-39-D was then further investigated by evaluating its ability to reverse morphine-induced analgesia. In this assay, the control animal received 10 nmols of morphine alone, while test animals received morphine +0.1 nmol of the agonist, morphine +1.0 nmol of the agonist, or morphine +10.0 nmol of the agonist. For each of these animals, response was measured at 5, 10, and 20 minutes after intracerebroventricular injection.
For orientation: In hot-plate and tail-flick tests a longer latency is read as antinociception.

Assay [6] relates to mice. In words: Tail flick assay, peptide alone, intracerebroventricular injection.

Square brackets hold non-standard residues; d marks the D form. Peptide text beside a SMILES is read from it. * marks the point of attachment. Tyr(3-Cl) = N[C@@H](Cc1ccc(O)c(Cl)c1)C(=O)O; Tyr(BN∗,3-Cl) = not defined here; Hexanoyl = CCCCCC(=O)*; Pentanoyl = CCCCC(=O)* Where only a bound is given, the exact number is not on record here.

One may read the IC50 as the midpoint of a concentration-inhibition curve. Higher therefore signals weaker potency in that assay.

T1 sequence (P41146 whole entry): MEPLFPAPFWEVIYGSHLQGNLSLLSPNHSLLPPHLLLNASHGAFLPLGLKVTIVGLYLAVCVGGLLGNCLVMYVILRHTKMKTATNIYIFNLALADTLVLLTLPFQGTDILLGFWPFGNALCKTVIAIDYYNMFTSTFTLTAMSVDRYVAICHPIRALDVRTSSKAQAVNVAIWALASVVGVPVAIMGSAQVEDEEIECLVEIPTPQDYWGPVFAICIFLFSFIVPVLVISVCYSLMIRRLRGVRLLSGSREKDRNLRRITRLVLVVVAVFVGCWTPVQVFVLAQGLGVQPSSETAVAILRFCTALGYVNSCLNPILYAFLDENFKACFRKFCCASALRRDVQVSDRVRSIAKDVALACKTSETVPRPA

For `CCCCCC(=O)N[C@@H](CCCNC(=N)N)C(=O)N[C@@H](Cc1ccc(O)cc1)C(=O)N[C@@H](Cc1ccc(O)cc1)C(=O)N[C@@H](CCCNC(=N)N)C(=O)N[C@@H](Cc1c[nH]c2ccccc12)C(=O)N[C@@H](CCCNC(=N)N)C(N)=O` [IV-17-C, Hexanoyl-RYYRWR-NH2] (Hexanoyl-RYYRWR-NH2), the “[35S]GTPγS Binding Percent Stimulation” value on human ORL1 [1] (Table 1, relative to nociceptin) is on record as 18%. The “agonist/antagonist character at ORL1” value at human ORL1 [1] is “very low efficacy compound”. The molecule further came in with an IC50 on human ORL1 [2] of 2.6 nM. Moreover, the “analgesic activity and potentiation of morphine analgesia in vivo” value in assay [3] was “no measurable in vivo activity”. Further, the “potency as antagonist relative to N^1-Phe-nociceptin (1-13)NH2” value at human ORL1 [4] (FIG. 2) is on record as “at least 10 times”. In addition, the “stimulation of [35S]GTPγS binding remaining” value at human ORL1 [4] (at 1 and 10 μM, with 10 nM nociceptin) is 20%.

Take `CCCCC(=O)N[C@@H](CCCNC(=N)N)C(=O)N[C@@H](Cc1ccc(O)cc1)C(=O)N[C@@H](Cc1ccc(O)cc1)C(=O)N[C@@H](CCCNC(=N)N)C(=O)N[C@@H](Cc1c[nH]c2ccccc12)C(=O)N[C@@H](CCCNC(=N)N)C(N)=O` [VII-7-B, Pentanoyl-Arg-Tyr-Tyr-Arg-Trp-Arg-NH2] (Pentanoyl-RYYRWR-NH2): the “EC50 ± SEM, stimulation of [35S]GTPγS binding” value at human ORL1 [1] (Table 6) is given as “FLAT”. Besides, at human ORL1 [1], the “agonist/antagonist character at ORL1” value is on record as “very potent antagonist” and the Emax is under 20%. The “Hill Coefficient” value on human ORL1 [2] is reported as 0.8. The “effect on morphine-induced analgesia” value in the assay on mice [5] (10 nmol alone or with N/OFQ, 5 minutes post-injection) is “reduction in morphine-induced analgesia”. Moreover, the “effect on nociceptin action on morphine analgesia” value with mice [5] (10 and 20 minutes post injection) was “did not alter the effects of nociceptin”. The “reversal of nociceptin's inhibition of morphine-induced analgesia” value in the assay with mice [5] (morphine + nociceptin + 3 or 10 nmol antagonist icv, FIG. 11) is “did not reverse the inhibition of morphine-induced analgesia”. In addition, at human ORL1 [4] (FIG. 9), the “shift of nociceptin dose response curve” value was “dose-dependent parallel shift”. On human ORL1 [4] (nociceptin dose response curve), the “pA2, Schild analysis” value is 8.99±0.05 and the “slope, Schild analysis” value was −1.02. For the same molecule, in the assay with mice [6] (10.0 and 30.0 nmol icv, 10 and 20 minutes post-injection), the “analgesic effect (% antinociception)” value is on record as “showed analgesic properties”.

As for `CC(=O)N[C@@H](CCCNC(=N)N)C(=O)N[C@@H](Cc1ccc(O)c(Cl)c1)C(=O)N[C@@H](Cc1ccc(O)cc1)C(=O)N[C@@H](CCCNC(=N)N)C(=O)N[C@@H](Cc1c[nH]c2ccccc12)C(=O)N[C@@H](CCCNC(=N)N)C(N)=O` [VII-87-B, Ac-Arg-Tyr(3-Cl)-Tyr-Arg-Trp-Arg-NH2] (Ac-R[Tyr(3-Cl)]YRWR-NH2), on human ORL1 [1], the “agonist/antagonist character at ORL1” value is recorded as “agonist” and the Emax is 72%. In addition, the “reversal of morphine-induced analgesia” value in the assay with mice [5] (morphine 10 nmol + 0.1, 1.0, 10.0 nmol agonist icv, at 10 and 20 minutes with 10 nmol) is listed as “dose-dependent reversal of morphine-induced analgesia”. Also, the “effect on nociception (% antinociception)” value in the assay with mice [6] (10 nmol icv, 5, 10 and 20 minutes post-injection) was “induced pro-nociception”.

“Ac-Arg-Tyr(BN*, 3-Cl)-Tyr-Arg-Trp-Arg-NH2 (Ac-R[Tyr(BN∗,3-Cl)]YRWR-NH2; reading uncertain; also: printed as Ac-Arg-Tyr(BN*, 3-Cl)-Tyr-Arg-Trp-Arg-NH2) [VII-39-D]”: the “agonist/antagonist character at ORL1” value in the assay with human ORL1 [1] was “full agonist”. Besides, the “Hill Coefficient” value in the assay with human ORL1 [2] was 1.03. For the same molecule, the “effect on morphine-induced analgesia” value with mice [5] (morphine 10 nmol + 1.0 and 10 nmol agonist icv, 5, 10 and 20 minutes) was “attenuation of morphine-induced analgesia”. In the assay with mice [6] (0.1, 1.0 or 10.0 nmol icv, 5, 10 and 20 minutes post-injection), the “effect on nociception (% antinociception)” value is “did not induce anti- or pro-nociception”.
